Data reported in patent US6596751B2, “α-substituted carboxylic acid derivatives” (Sankyo Company Limited, priority 1999, dated 2003).
Counter-ions that a name gives are not always drawn.

System: KK mice (4-5 months old) suffering from diabetes mellitus
Assay: Hypoglycemic activity: blood sugar lowering in diabetic KK mice fed the test compound
Type: in vivo
Settings: 4 per group, powdered feed containing 0.01% of test compound for 3 days, plasma glucose vs control group
Text: Blood was collected from the tail veins of KK mice (4-5 months old) suffering from diabetes mellitus, and it was subjected to an assay of the blood sugar level. The mice were divided in groups (4 mice per group) as to have equal blood sugar levels on average in each group. Powdered mouse feed (F-1, Funabashi Farm) containing 0.01% of a test compound was given the mice for 3 days. Those mice groups fed with the test compound were referred to as “drug treated group”. Further, those groups fed with powdered feed free of the test compound were referred to as “control group”. Blood was collected from the tail veins of the mice 3 days later and was subjected to a centrifuge, and the glucose concentration in the resultant plasma was assayed with a glucose analyzer (Glucoloader, A&T Company). The average blood sugar lowering rate was calculated from the following formula:
Blood sugar lowering rate (%)=(Average blood sugar level in control group−Average blood sugar level in drug treated group)×100/Blood sugar level in control group

Row | SMILES | Blood sugar lowering rate (%)
1 | Cn1c(COc2ccc(CC(OCc3ccc(F)cc3)C(=O)O)cc2)nc2ccc(Oc3ccc(C45CC6CC(CC(C6)C4)C5)cc3)cc21 (centres unmarked) [Example 2, 3-[4-[6-(4-Adamantan-1-ylphenoxy)-1-methyl-1H-benzimidazol-2-ylmethoxy]phenyl]-2-(4-fluorobenzyloxy)propionic acid] | 58.5
2 | Cn1c(COc2ccc(CC(OCc3ccc(F)cc3)C(=O)O)cc2)nc2ccc(Sc3cc(C(C)(C)C)c(O)c(C(C)(C)C)c3)cc21 (centres unmarked) [Example 4, 3-[4-[6-(3,5-Di-t-butyl-4-hydroxyphenylthio)-1-methyl-1H-benzimidazol-2-ylmethoxy]phenyl]-2-(4-fluorobenzyloxy)propionic acid] | 40.8
3 | CCOC(Cc1ccc(OCc2nc3ccc(OC)cc3n2C)cc1)C(=O)O.Cl (centres unmarked) [Example 9, 2-Ethoxy-3-[4-(1-methyl-6-methoxy-1H-benzimidazol-2-ylmethoxy)phenyl]propionic acid hydrochloride] | 48.4
4 | COC(=O)[C@H](Cc1ccc(OCc2nc3ccc(OC)cc3n2C)cc1)Nc1ccccc1C(=O)c1ccccc1.Cl [Example 16, N-(2-Benzoylphenyl)-4-(6-methoxy-1-methyl-1H-benzimidazol-2-ylmethoxy)phenylalanine methyl ester hydrochloride] | 32.1
5 | Cc1cc(Oc2ccc3nc(COc4ccc(C[C@H](Nc5ccccc5C(=O)c5ccccc5)C(=O)O)cc4)n(C)c3c2)cc(C)c1N [Example 20, 4-[6-(4Amino-3 ,5dimethylphenoxy)-1-methyl-1H-benzimidazol-2-ylmethoxy]-N-(2-benzoylphenyl)phenylalanine dihydrochloride] | 40.0
